The subject of the assay is Human primary myoblasts. Description: Myogenic amplification and commitment of muscle stem cells (Pax7/MyoD staining, image quantification). In kind it is cell-based. To be noted: donors 1 and 2 pooled, dose response, 96 hours, control DMSO 1%; for proportion of MyoD+ cells, fold change compared to the control condition: FIG. 1B/2B. On the procedure:
Human Skeletal Muscle Myoblasts were purchased from Lonza (https://bioscience.lonza.com). These cells were isolated from the upper arm or leg muscle tissue of normal donors and used after the second passage. Several donors were tested to ensure cell viability and purity before selecting the final donors, which are a person (refer thereafter as Donor 1), a person (refer thereafter as Donor 2) and a person (refer thereafter as Donor 3). Human primary myoblasts were seeded in 384 well plates at a density of 1′000 cells per well in skeletal muscle growth medium (SKM-M, AMSbio). For treatment, compounds were directly added to the myoblast cultures 16 hours after initial plating. All cultures were then grown for 96 hours. Cells were stained for Pax7 and MyoD expression using antibodies directed against Pax7 and MyoD and counterstained with Hoechst 33342 to visualize cell nuclei. Pax7+ cells are defined as cells that express Pax7 regardless of MyoD expression. […] Image acquisition was performed using the ImageXpress (Molecular Devices) platform. Custom module analysis based on Multi-Wavelength Cell Scoring of the MetaXpress software was used for quantification. *, **, ***, **** indicates difference from the control, One-way ANOVA, with p<0.05, p<0.01, p<0.001, p<0.0001, respectively. Data are presented as Mean+/— SEM. Human primary myoblasts from different donors (donor 1, donor 2 or donor 3) were seeded in 384 well plates at a density of 1′000 cells per well in skeletal muscle growth medium (SKM-M, AMSbio). For treatment, compounds were directly added to the myoblast cultures 16 hours after initial plating. All cultures were then grown for 96 hours. Cells were stained for Pax7 and MyoD expression using antibodies directed against Pax7 and MyoD and counterstained with Hoechst 33342 to visualize cell nuclei. Pax7+ cells are defined as cells that express Pax7 regardless of MyoD expression. […] Custom module analysis based on Multi-Wavelength Cell Scoring of the MetaXpress software was used for quantification. […]

For `Cc1ncc(CO)c(CO)c1O` [Pyridoxine], the “proportion of MyoD+ cells, fold change compared to the control condition” value is “increasing the proportion of differentiating (MyoD+) cells in a dose dependent manner”.
As to `NC(=O)c1cccnc1` [Nicotinamide], the “proportion of MyoD+ cells, fold change compared to the control condition” value was “increasing the proportion of both amplifying (Pax7+) and differentiating (MyoD+) cells in a dose dependent manner”. The “proportion of Pax7+ cells, fold change compared to the control condition” value (FIG. 1A/2A) was “increasing the proportion of both amplifying (Pax7+) and differentiating (MyoD+) cells in a dose dependent manner”.

(Values after patent US12691104B2, “Compositions containing nicotinamide and vitamin B6 and methods of using such compositions for treating sarcopenia and frailty” (SOCIETE DES PRODUITS NESTLE S.A., priority 2020, dated 2026).)
